Entries after “also recorded” stand apart in the source; their conditions may differ.
B1: magrolimab: anti-CD47 antibody (antibody, chains of the INN, looked up, V domains shown)
VH: QVQLVQSGAEVKKPGASVKVSCKASGYTFTNYNMHWVRQAPGQRLEWMGTIYPGNDDTSYNQKFKDRVTITADTSASTAYMELSSLRSEDTAVYYCARGGYRAMDYWGQGTLVTVSS
VL: DIVMTQSPLSLPVTPGEPASISCRSSQSIVYSNGNTYLGWYLQKPGQSPQLLIYKVSNRFSGVPDRFSGSGSGTDFTLKISRVEAEDVGVYYCFQGSHVPYTFGQGTKLEIK

Test system: U937 AML cells
Experiment: AML xenograft model: luciferase-expressing U937 tumor cells in NSG mice, in-vivo bioluminescent imaging
Details: U937 i.v., azacitidine 7.5 mg/kg QD 5 days i.p., NAE1 SMI 120 mg/kg QD 5 days on, 2 days rest, magrolimab 250 μg QD
Procedure: FIG. 3 illustrates that NAE1 inhibition in combination with CD47 blockade elicits robust anti-tumor efficacy in an AML xenograft model. Luciferase-expressing U937 tumor cell were transferred to NSG mice by intravenous injection. On day 5, mice were randomized into cohorts and treated with Vehicle [20% (2-Hydroxypropyl)-β-cyclodextrin], azacitidine (7.5 mg/kg QD for 5 days), or NAE1 small molecule inhibitor (120 mg/kg QD for 5 days followed by 2 days/rest) by intraperitoneal injection. Magrolimab was administered 48 hours post chemo treatment (250 μg QD for the entire study) as a single agent or in combination. Tumor growth was monitored using in-vivo bioluminescent imaging and the resulting signal was reported as total flux.
To evaluate, if the combination of NAE1 SMI with magrolimab could increase the elimination of leukemia cells in vivo, a treatment study was conducted in mice transplanted with U937 AML cells. In addition to NAE1 SMI, azacitidine, a hypomethylating and chemotherapeutic agent indicated for AML was also included into the study, since azacitidine had previously been established to enhance elimination of AML cells when combined with magrolimab (Chao, et al., Front Oncol (2020) 9:1380). […]

| Molecule | tumor growth / cancer remission (result in words) |
| --- | --- |
| Nc1ncn([C@@H]2O[C@H](CO)[C@@H](O)[C@H]2O)c(=O)n1 [azacitidine, 5-azacytidine, reference compound] | did initially slow tumor growth compared to vehicle control but failed to stop cancer progression |
| B1 | did initially slow tumor growth compared to vehicle control but failed to stop cancer progression; also recorded: modest |
